Laboratory results taken from patent US20110212101A1, “MATERIALS AND METHODS FOR EXPLOITING SYNTHETIC LETHALITY IN MISMATCH REPAIR-DEFICIENT CANCERS” (priority 2007, published 2011).
Where a SMILES comes first, the peptide text is derived from it. The star is where a group is joined. Cbz = O=C(OCc1ccccc1)*

Columns and labels:
[1] = test system: POLG; details: cited from earlier work; for inhibition of POLG activity in vitro: extent of inhibition varies widely
[2] = test system: OGG1 expression in HeLa cells; assay: Western blot for OGG1 expression; type: cell-based, human; details: POLB silenced cells; 50 μM MG132, lysates 18 hours later
Protocol: (§1) Cell pellets were lysed in 20 mmol/L Tris (pH 8), 200 mmol/L NaCl, 1 mmol/L EDTA, 0.5% (v/v) NP40, 10% (v/v) glycerol, and protease inhibitors. Immunoprecipitations were performed by incubating Protein G beads (Sigma), 1-2 mg of precleared cell lysate and anti-POLB antibody (ab3181, Abcam; dilution 1:100) overnight at 4° C. Beads were subsequently washed three times in cold lysis buffer, after which 2× loading buffer was added and the samples were boiled for 5 min before SDS-PAGE. For western blotting, lysates were electrophoresed on Novex precast gels (Invitrogen) and immunoblotted using the following antibodies: anti-MSH2 (Ab-1, Calbiochem), anti-POLB (ab3181, Abcam), anti-MLH1 (ab9144, Abcam), anti-POLG (Novus), anti-PCNA (SC7907, Santa-Cruz), anti-Cytochrome C (Pharmagen) anti-OGG1 (NB100-106, Novus biologicals), anti-CHIP (ab39559, Abcam) and anti-β-tubulin, (T4026, Sigma). This was followed by incubation with anti-IgG-horseradish peroxidase and chemiluminescent detection (SuperSignal West Pico Chemiluminescent Substrate, Pierce). Immunoblotting for (1-tubulin was used as a loading control.

[3] = test system: POLB mRNA in MSH2 deficient and proficient cells; assay: POLB mRNA by qRT-PCR after H2O2; type: cell-based, human; details: 100 μM H202, RNA isolated after 15 mins
Protocol: Quantification of RNA expression was measured by real time RT-PCR. Total RNA was extracted from cells with Trizol (Invitrogen) according to manufacturer's instructions. Total RNA from patient biopsies was purified from 10 μm sections using the High Pure RNA Paraffin Kit (Roche Diagnostic Ltd). cDNA was synthesized using Omniscript Reverse Transcriptase System for RT-PCR (Qiagen) with oligo dT as per manufacturer's instructions. Assay-on-Demand primer/probe sets were purchased from Applied Biosystems (Foster City, Calif.). Real-Time qPCR was performed on the […] Fast Real-Time PCR System (Applied Biosystems), with endogenous control β-Actin. Standard curves were calculated for all reactions with serial dilutions of control Hec59+chr2 cells to calculate reaction efficiency. Gene expression was calculated relative to expression of β-Actin endogenous control, and adjusted relative to expression in control Hec59+chr2 cells. Samples were quantified in triplicate.

[4] = test system: Hec59 and Hec59+chr2 cells; assay: High-throughput compound inhibitor screen, CellTitre Glo viability; type: cell-based, human; details: library of 1120 compounds; viability after six days
Protocol: (§2) Compound libraries were purchased from Prestwick Chemicals (Saffron Walden, Essex, UK). Validation experiments were carried out with Methotrexate (Biomol International L.P.) and Menadione and Partenolide (Prestwick chemicals). Cells were plated in 96-well plates. After 12 hr incubation, cells were exposed to compound or equimolar DMSO and re-treated every 48 hrs. Cell viability was measured six days later using the CellTitre Glo assay (Promega) according to the manufacturer's instructions. Validation of hit compounds was performed by clonogenic assays. Exponentially growing cells were seeded at various densities in six-well plates. Cells were treated with increasing concentrations of the compound. Cell medium was replaced every four days. After ten to fourteen days, cells were fixed in methanol, stained with crystal violet, and counted. The plating efficiencies were calculated as the number of colonies divided by the number of cells plated for each compound treatment. The surviving fraction (SF) for a given sample was calculated as the plating efficiencies for each compound treated cells divided by the plating efficiencies of DMSO treated cells.

[5] = test system: Hec59 cells (MSH2 deficient); assay: 8-OHdG ELISA on isolated DNA; type: cell-based, human; details: compound treatment for three days
Protocol: (§3) Genomic DNA was extracted using the Qiamp DNA isolation kit (Qiagen) and digested with nuclease P1. Mitochondrial and nuclear DNA was extracted using the mitochondrial DNA isolation kit (ab65321, Abcam). A commercially available ELISA kit from Cell Biolabs was used to determine levels of 8-OHdG in isolated DNA. The assays were performed according to the manufacturer's instructions. The 8-OHdG standard (0.078-20 ng/ml) or 10 μg DNA from siRNA transfected cells was incubated with a 8-OHdG monoclonal antibody in a microtiter plate precoated with 8-OHdG.
(§4) Addition of […] to replicate samples was followed by measurement of absorbance at 450 nm. Standard curves were calculated for all reactions with serial dilutions of 8-OHdG standard to calculate reaction efficiency. Samples were assayed in triplicate.

[6] = test system: Hec59+chr2 cells (MSH2 proficient); assay: 8-OHdG ELISA on isolated DNA; type: cell-based, human; details: compound treatment for three days
Protocol: as §3, §4

[7] = test system: reactive oxygen species (ROS); details: VK3 at 30 μM; leading to apoptosis; cited from earlier work
[8] = target: POLB (Rattus norvegicus, UniProt P06766); details: read-out: IC50 as POLB inhibitor; cited from earlier work
[9] = test system: Hec59 and Hec59+chr2 cells; assay: Clonogenic assay with compounds; type: cell-based, human; details: folic acid added in concert with methotrexate; Hec59 MSH2 deficient cells; 14 days
Protocol: as §2

[10] = test system: HeLa cells; assay: Clonogenic survival with methotrexate after MSH2 siRNA; type: cell-based, human; details: cells transfected with MSH2 siRNA vs siControl; continuous exposure 14 days
Protocol: (§5) For clonogenic assays, exponentially growing cells were seeded at various densities in six-well plates. Cells were transfected with siRNA as before. Cell medium was replaced every four days. After ten to fourteen days, cells were fixed in methanol, stained with crystal violet, and counted. The plating efficiencies were calculated as the number of colonies divided by the number of cells plated for each siRNA transfection. The surviving fraction (SF) for a given sample was calculated as the plating efficiencies for each siRNA transfection divided by the plating efficiencies of siControl siRNA transfected cells. All transfections were carried out in triplicate.
(§6) Compound libraries were purchased from Prestwick Chemicals (Saffron Walden, Essex, UK). […] Cell viability was measured six days later using the CellTitre Glo assay (Promega) according to the manufacturer's instructions. […] After ten to fourteen days, cells were fixed in methanol, stained with crystal violet, and counted. The plating efficiencies were calculated as the number of colonies divided by the number of cells plated for each compound treatment. The surviving fraction (SF) for a given sample was calculated as the plating efficiencies for each compound treated cells divided by the plating efficiencies of DMSO treated cells.

[11] = test system: Hec59+chr2 cells; assay: as above; type: cell-based, human; details: cells transfected with MSH2 siRNA vs siControl; continuous exposure 14 days
Protocol: as §5, §6

[12] = test system: POLβ expression in Hec59 and Hec59+chr2 cells; assay: Western blot for POLβ expression; type: cell-based, human; details: 72 hours after treatment with methotrexate
Protocol: as §1
Transfected cell pellets were lysed in 20 mmol/L Tris (pH 8), 200 mmol/L NaCl, 1 mmol/LEDTA, 0.5% (v/v) NP40, 10% (v/v) glycerol, and protease inhibitors. […]

## Nc1ncnc2c1ncn2CCOCP(=O)(O)OP(=O)(O)OP(=O)(O)O [adefovir-diphosphate]
[1]
  inhibition of POLG activity in vitro: inhibit POLG activity in vitro

## CC(C)C[C@@H](C=O)NC(=O)[C@H](CC(C)C)NC(=O)[C@H](CC(C)C)NC(=O)OCc1ccccc1 [MG132] (Cbz-Leu-Leu-Leu-aldehyde)
[2]
  OGG1 expression: restored the expression of OGG1

## OO [H202]
[3]
  POLB mRNA levels: induced

## CC1=CC(=O)c2ccccc2C1=O [Menadione, 2-methylnaphthalene-1,4-dione]
[4]
  selectivity for MSH2 deficient cells in high-throughput screen: show selectivity for MSH2 deficient cells
[5]
  8-OHdG accumulation: increased significantly
[6]
  8-OHdG accumulation: did not increase
[1]; VK3 at 30 μM
  inhibition of POLG: more than 80%
[7]
  reactive oxygen species (ROS): significant increase

## Cc1cn([C@H]2C[C@H](N=[N+]=[N-])[C@@H](COP(=O)(O)OP(=O)(O)OP(=O)(O)O)O2)c(=O)[nH]c1=O [zidovudine-TP]
[1]
  inhibition of POLG activity in vitro: inhibit POLG activity in vitro

## C/C(=C/CC[C@H](C)[C@@H]1CC[C@]2(C)C3=CC[C@H]4C(C)(C)C(=O)CC[C@]4(C)[C@H]3CC[C@@]12C)C(=O)O [masticadienonic acid]
[8]
  IC50: 8 µM

## Nc1nc2ncc(CNc3ccc(C(=O)N[C@@H](CCC(=O)O)C(=O)O)cc3)nc2c(=O)[nH]1 [folic acid]
[9]
  rescue of methotrexate lethality: in large part rescues the lethal phenotype

## Nc1ccn([C@H]2CC[C@@H](COP(=O)(O)OP(=O)(O)OP(=O)(O)O)O2)c(=O)n1 [zalcitabine-TP]
[1]
  inhibition of POLG activity in vitro: inhibit POLG activity in vitro

## Nc1ccn([C@@H]2CS[C@H](COP(=O)(O)OP(=O)(O)OP(=O)(O)O)O2)c(=O)n1 [Lamivudine-TP]
[1]
  inhibition of POLG activity in vitro: inhibit POLG activity in vitro

## CN(Cc1cnc2nc(N)nc(N)c2n1)c1ccc(C(=O)N[C@@H](CCC(=O)O)C(=O)O)cc1 [Methotrexate, (S)-2-(4-(((2,4-diaminopteridin-6-yl)methyl)methylamino)benzamido)pentanedioic acid]
[4]
  selectivity for MSH2 deficient cells in high-throughput screen: show selectivity for MSH2 deficient cells
[10]
  synthetic lethality with methotrexate (survival): synthetically lethal
[11]
  synthetic lethality with methotrexate (survival): synthetically lethal
[5]
  8-OHdG accumulation: increased significantly
[6]
  8-OHdG accumulation: did not increase
[12]
  POLβ expression: reduction of POLβ expression

## CC(Cn1cnc2c(N)ncnc21)OCP(=O)(O)OP(=O)(O)OP(=O)(O)O (stereo in doubt) [tenofovir-DP]
[1]
  inhibition of POLG activity in vitro: inhibit POLG activity in vitro
